Source: the kinase profiling compilation of Christmann-Franck et al. (2016)
Where “and” joins values, the source holds several entries; their conditions need not be identical. Equal values may be shown once.

Columns and labels:
Assay in all cases: radiometric filter-binding kinase assay, Kinase HotSpot
Details in all cases: compound 0.5 µM; ATP 10 µM
GSK3B (human) = GSK3B (human) (UniProt P49841)
MYLK2 (human) = MYLK2 (human) (UniProt Q9H1R3)
DYRK1B (human) = DYRK1B (human) (UniProt Q9Y463)
PAK7 (human) = PAK7 (human) (UniProt Q9P286)
PKN1 (human) = PKN1 (human) (UniProt Q16512)
Chain of PKN1 (human) (Q16512 whole entry, looked up): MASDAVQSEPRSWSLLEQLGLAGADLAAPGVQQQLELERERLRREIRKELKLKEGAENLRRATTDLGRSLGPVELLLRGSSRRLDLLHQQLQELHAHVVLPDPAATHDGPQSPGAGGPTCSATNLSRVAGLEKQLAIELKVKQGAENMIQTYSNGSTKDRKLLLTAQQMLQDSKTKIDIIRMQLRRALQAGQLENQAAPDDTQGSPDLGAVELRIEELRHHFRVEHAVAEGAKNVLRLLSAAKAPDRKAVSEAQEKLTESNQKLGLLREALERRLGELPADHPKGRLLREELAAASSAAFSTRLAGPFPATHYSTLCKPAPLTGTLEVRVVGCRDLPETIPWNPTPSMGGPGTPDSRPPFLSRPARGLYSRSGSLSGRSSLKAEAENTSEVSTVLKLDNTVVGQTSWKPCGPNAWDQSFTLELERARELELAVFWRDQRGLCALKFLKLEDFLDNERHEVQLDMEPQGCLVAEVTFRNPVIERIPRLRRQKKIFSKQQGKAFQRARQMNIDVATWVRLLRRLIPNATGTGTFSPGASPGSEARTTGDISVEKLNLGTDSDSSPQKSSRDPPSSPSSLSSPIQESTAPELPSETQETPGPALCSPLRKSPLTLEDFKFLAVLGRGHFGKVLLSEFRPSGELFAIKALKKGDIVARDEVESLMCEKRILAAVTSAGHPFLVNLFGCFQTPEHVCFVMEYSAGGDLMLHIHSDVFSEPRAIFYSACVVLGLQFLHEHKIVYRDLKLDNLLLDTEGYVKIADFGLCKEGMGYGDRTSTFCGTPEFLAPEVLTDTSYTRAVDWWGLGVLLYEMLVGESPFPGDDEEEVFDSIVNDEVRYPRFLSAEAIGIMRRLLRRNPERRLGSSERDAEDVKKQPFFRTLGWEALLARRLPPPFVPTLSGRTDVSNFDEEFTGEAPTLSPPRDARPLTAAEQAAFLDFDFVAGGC

FYN (human) = FYN (human) (UniProt P06241)
CAMKK2 (human) = CAMKK2 (human) (UniProt Q96RR4)
Chain of CAMKK2 (human) (Q96RR4 whole entry, looked up): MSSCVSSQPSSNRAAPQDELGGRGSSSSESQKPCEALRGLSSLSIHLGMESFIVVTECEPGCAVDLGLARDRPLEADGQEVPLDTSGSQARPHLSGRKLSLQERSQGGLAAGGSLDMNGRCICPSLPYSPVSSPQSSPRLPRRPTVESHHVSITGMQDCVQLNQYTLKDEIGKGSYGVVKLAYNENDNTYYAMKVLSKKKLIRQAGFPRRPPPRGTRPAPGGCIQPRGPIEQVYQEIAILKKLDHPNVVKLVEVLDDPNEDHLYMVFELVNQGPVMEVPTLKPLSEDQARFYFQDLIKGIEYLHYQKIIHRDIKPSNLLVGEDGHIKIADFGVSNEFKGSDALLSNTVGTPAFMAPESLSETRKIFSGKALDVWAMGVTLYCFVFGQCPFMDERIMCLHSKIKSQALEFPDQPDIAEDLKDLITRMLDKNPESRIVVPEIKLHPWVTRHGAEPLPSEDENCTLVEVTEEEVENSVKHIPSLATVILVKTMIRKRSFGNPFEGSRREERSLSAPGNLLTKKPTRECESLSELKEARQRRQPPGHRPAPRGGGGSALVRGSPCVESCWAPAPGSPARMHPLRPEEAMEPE

NTRK1 (human) = NTRK1 (human) (UniProt P04629)
PRKG1 (human) = PRKG1 (human) (UniProt Q13976)
DAPK3 (human) = DAPK3 (human) (UniProt O43293)
ULK3 (human) = ULK3 (human) (UniProt Q6PHR2)
CHEK2 (human) = CHEK2 (human) (UniProt O96017)
RPS6KB1 (human) = RPS6KB1 (human) (UniProt P23443)
MYO3B (human) = MYO3B (human) (UniProt Q8WXR4)
GRK6 (human) = GRK6 (human) (UniProt P43250)
MARK1 (human) = MARK1 (human) (UniProt Q9P0L2)
Chain of MARK1 (human) (Q9P0L2 whole entry, looked up): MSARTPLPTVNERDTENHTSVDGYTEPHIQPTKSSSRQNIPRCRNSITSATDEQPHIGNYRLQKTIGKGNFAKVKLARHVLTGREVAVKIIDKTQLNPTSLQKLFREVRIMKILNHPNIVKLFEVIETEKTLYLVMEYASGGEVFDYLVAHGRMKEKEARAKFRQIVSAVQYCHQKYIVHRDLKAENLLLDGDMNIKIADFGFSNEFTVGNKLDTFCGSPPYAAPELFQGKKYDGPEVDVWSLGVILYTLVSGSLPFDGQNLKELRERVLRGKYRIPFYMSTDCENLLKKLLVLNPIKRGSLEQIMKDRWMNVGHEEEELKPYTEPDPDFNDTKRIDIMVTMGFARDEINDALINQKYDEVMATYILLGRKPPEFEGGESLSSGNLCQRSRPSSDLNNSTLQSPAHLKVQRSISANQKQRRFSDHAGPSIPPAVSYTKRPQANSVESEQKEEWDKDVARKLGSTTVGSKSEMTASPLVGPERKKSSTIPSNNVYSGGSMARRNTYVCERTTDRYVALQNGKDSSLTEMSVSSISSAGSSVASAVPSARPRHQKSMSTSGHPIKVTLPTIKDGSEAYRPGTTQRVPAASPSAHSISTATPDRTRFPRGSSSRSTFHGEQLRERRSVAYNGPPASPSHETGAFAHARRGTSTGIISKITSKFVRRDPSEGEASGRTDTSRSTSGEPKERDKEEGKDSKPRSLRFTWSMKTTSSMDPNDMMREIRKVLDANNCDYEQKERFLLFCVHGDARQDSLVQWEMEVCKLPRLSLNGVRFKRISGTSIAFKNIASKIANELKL

ROS1 (human) = ROS1 (human) (UniProt P08922)
FGR (human) = FGR (human) (UniProt P09769)
EPHA1 (human) = EPHA1 (human) (UniProt P21709)
Chain of EPHA1 (human) (P21709 whole entry, looked up): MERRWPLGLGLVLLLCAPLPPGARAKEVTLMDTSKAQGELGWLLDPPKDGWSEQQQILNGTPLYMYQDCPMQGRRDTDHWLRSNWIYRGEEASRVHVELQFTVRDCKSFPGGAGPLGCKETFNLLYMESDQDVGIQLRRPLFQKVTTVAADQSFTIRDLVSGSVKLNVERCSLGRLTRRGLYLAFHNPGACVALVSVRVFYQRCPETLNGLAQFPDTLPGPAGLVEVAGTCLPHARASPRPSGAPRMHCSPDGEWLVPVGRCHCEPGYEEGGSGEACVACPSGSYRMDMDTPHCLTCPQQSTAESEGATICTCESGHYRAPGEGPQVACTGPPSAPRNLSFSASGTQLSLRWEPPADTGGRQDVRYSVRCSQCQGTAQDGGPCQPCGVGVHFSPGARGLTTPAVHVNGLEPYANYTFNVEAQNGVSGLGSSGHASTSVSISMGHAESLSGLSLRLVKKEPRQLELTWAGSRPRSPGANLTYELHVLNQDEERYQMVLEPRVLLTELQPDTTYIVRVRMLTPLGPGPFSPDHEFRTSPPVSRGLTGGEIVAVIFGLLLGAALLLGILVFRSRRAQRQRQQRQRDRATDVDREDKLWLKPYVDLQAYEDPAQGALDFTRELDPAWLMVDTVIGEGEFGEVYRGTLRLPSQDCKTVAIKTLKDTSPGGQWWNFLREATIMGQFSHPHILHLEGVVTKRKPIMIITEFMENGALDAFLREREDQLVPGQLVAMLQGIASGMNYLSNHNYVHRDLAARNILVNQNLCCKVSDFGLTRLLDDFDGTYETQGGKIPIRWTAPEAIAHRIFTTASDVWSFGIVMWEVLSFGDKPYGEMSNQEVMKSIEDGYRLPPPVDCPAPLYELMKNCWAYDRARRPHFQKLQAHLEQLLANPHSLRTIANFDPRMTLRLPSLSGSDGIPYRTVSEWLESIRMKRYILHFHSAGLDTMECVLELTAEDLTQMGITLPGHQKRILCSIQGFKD

LTK (human) = LTK (human) (UniProt P29376)
CAMKK1 (human) = CAMKK1 (human) (UniProt Q8N5S9)
Chain of CAMKK1 (human) (Q8N5S9 whole entry, looked up): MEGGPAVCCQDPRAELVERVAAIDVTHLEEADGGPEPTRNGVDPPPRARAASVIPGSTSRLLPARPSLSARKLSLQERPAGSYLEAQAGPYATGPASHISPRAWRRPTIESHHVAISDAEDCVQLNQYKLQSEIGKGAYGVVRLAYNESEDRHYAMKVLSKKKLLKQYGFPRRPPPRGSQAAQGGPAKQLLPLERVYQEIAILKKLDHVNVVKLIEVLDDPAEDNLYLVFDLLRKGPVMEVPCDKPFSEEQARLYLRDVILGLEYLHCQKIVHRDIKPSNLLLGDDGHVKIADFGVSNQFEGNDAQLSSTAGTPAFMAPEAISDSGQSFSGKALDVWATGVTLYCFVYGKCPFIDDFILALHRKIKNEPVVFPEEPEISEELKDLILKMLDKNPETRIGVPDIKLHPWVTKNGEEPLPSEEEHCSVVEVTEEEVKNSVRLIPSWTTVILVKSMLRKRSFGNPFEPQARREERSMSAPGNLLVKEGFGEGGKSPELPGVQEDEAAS

MAPKAPK3 (human) = MAPKAPK3 (human) (UniProt Q16644)
MAPK14 (human) = MAPK14 (human) (UniProt Q16539)
ULK1 (human) = ULK1 (human) (UniProt O75385)
CDK9 CCNK (human) = CDK9 CCNK (human) (UniProt O75909+P50750)
PLK3 (human) = PLK3 (human) (UniProt Q9H4B4)
PRKCE (human) = PRKCE (human) (UniProt Q02156)
CAMK2G (human) = CAMK2G (human) (UniProt Q13555)
PNCK (human) = PNCK (human) (UniProt Q6P2M8)
CDK1 CCNB1 (human) = CDK1 CCNB1 (human) (UniProt P06493+P14635)
PRKCH (human) = PRKCH (human) (UniProt P24723)
AURKA (human) = AURKA (human) (UniProt O14965)
MELK (human) = MELK (human) (UniProt Q14680)
Chain of MELK (human) (Q14680 whole entry, looked up): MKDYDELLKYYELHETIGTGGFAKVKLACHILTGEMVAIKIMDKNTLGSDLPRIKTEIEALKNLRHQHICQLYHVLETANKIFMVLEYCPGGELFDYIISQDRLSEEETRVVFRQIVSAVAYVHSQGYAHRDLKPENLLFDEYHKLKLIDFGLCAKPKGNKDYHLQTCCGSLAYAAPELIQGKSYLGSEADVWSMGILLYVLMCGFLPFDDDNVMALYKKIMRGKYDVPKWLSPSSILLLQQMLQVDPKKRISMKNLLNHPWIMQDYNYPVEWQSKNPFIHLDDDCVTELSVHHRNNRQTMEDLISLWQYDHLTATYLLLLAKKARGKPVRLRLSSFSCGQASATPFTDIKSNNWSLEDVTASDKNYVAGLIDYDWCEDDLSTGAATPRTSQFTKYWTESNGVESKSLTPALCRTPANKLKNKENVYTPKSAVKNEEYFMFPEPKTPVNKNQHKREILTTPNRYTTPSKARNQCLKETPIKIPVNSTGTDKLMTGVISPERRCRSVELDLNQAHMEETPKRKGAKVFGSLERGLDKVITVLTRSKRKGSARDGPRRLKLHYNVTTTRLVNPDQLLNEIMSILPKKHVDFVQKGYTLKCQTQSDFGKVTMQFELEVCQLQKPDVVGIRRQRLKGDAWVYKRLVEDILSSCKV

MAP3K2 (human) = MAP3K2 (human) (UniProt Q9Y2U5)
EPHA3 (human) = EPHA3 (human) (UniProt P29320)
FRK (human) = FRK (human) (UniProt P42685)
PAK1 (human) = PAK1 (human) (UniProt Q13153)
FGFR2 (human) = FGFR2 (human) (UniProt P21802)
CSNK1G2 (human) = CSNK1G2 (human) (UniProt P78368)
MAPK3 (human) = MAPK3 (human) (UniProt P27361)
SYK (human) = SYK (human) (UniProt P43405)
CDK5 CDK5R1 p35 (human) = CDK5 CDK5R1 p35 (human) (UniProt Q00535+Q15078)

Chain of GSK3B (human) (P49841 whole entry, looked up): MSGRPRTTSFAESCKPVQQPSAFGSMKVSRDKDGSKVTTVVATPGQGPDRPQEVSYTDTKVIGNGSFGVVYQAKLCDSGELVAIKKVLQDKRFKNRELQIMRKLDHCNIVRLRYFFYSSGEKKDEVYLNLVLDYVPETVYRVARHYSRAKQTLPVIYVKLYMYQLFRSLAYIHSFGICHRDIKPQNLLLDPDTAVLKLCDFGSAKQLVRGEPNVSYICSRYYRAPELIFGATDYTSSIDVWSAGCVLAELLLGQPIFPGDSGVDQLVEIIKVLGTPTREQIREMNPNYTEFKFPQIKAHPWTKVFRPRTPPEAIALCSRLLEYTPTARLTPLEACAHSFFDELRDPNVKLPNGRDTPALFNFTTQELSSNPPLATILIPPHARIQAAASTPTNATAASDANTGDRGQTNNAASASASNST

Q: Which residual activity (GSK3B (human)) does the source give for `CCN(CC)CCNC(=O)c1c(C)[nH]c(/C=C2\C(=O)Nc3ccc(F)cc32)c1C` here?
A: 95.8%

Q: What about the residual activity (MYLK2 (human)) of the same molecule?
A: 7.74%

Q: What about the residual activity (DYRK1B (human)) of the same molecule?
A: 60%

Q: What about the residual activity (PAK7 (human)) of the same molecule?
A: 81.6%

Q: What about the residual activity (PKN1 (human)) of the same molecule?
A: 71.4%

Q: What about the residual activity (FYN (human)) of the same molecule?
A: 71.3%

Q: And the residual activity (CAMKK2 (human))?
A: 65.3%

Q: And the residual activity (NTRK1 (human))?
A: 11.5%

Q: And the residual activity (PRKG1 (human))?
A: 65.3% and 88.8%

Q: And the residual activity (DAPK3 (human))?
A: 74.2%

Q: What about the residual activity (ULK3 (human)) of the same molecule?
A: 57.4%

Q: And the residual activity (CHEK2 (human))?
A: 7.13%

Q: And the residual activity (RPS6KB1 (human))?
A: 42.3%

Q: And the residual activity (MYO3B (human))?
A: 54.5%

Q: And the residual activity (GRK6 (human))?
A: 74.7%

Q: What about the residual activity (MARK1 (human)) of the same molecule?
A: 40.9%

Q: What about the residual activity (ROS1 (human)) of the same molecule?
A: 71.6%

Q: What about the residual activity (FGR (human)) of the same molecule?
A: 16.4%

Q: What about the residual activity (EPHA1 (human)) of the same molecule?
A: 95.1%

Q: And the residual activity (LTK (human))?
A: 34.4%

Q: What about the residual activity (CAMKK1 (human)) of the same molecule?
A: 52.1%

Q: What about the residual activity (MAPKAPK3 (human)) of the same molecule?
A: 102%

Q: What about the residual activity (MAPK14 (human)) of the same molecule?
A: 105%

Q: What about the residual activity (ULK1 (human)) of the same molecule?
A: 16.3%

Q: And the residual activity (CDK9 CCNK (human))?
A: 80.2%

Q: What about the residual activity (PLK3 (human)) of the same molecule?
A: 96.5%

Q: And the residual activity (PRKCE (human))?
A: 98%

Q: What about the residual activity (CAMK2G (human)) of the same molecule?
A: 25.1%

Q: What about the residual activity (PNCK (human)) of the same molecule?
A: 98.5%

Q: What about the residual activity (CDK1 CCNB1 (human)) of the same molecule?
A: 103%

Q: What about the residual activity (PRKCH (human)) of the same molecule?
A: 112%

Q: And the residual activity (AURKA (human))?
A: 59.7%

Q: And the residual activity (MELK (human))?
A: 10.4%

Q: And the residual activity (MAP3K2 (human))?
A: 51.9%

Q: And the residual activity (EPHA3 (human))?
A: 84%

Q: What about the residual activity (FRK (human)) of the same molecule?
A: 84.4%

Q: What about the residual activity (PAK1 (human)) of the same molecule?
A: 118%

Q: What about the residual activity (FGFR2 (human)) of the same molecule?
A: 50.5%

Q: What does the source list for `Nc1ncnc2c1c(-c1ccc(Oc3ccccc3)cc1)cn2C1CCCC1`?
A: residual activity (CSNK1G2 (human)): 93.7%; residual activity (GSK3B (human)): 99.2%; residual activity (MYLK2 (human)): 92.4%; residual activity (DYRK1B (human)): 92.2%; residual activity (MAPK3 (human)): 108%; residual activity (PAK7 (human)): 102%; residual activity (PKN1 (human)): 104%; residual activity (FYN (human)): 3.51%; residual activity (CAMKK2 (human)): 86.3%; residual activity (NTRK1 (human)): 94.3%; residual activity (PRKG1 (human)): 103% and 96.4%; residual activity (DAPK3 (human)): 114%; residual activity (ULK3 (human)): 102%; residual activity (CHEK2 (human)): 76.6%; residual activity (RPS6KB1 (human)): 104%; residual activity (MYO3B (human)): 103%; residual activity (GRK6 (human)): 92.6%; residual activity (MARK1 (human)): 94.1%; residual activity (ROS1 (human)): 101%; residual activity (FGR (human)): 2.93%; residual activity (EPHA1 (human)): 101%; residual activity (LTK (human)): 86.3%; residual activity (CAMKK1 (human)): 99.1%; residual activity (MAPKAPK3 (human)): 109%; residual activity (MAPK14 (human)): 76.3%; residual activity (ULK1 (human)): 106%; residual activity (CDK9 CCNK (human)): 104%; residual activity (PLK3 (human)): 105%; residual activity (PRKCE (human)): 96%; residual activity (CAMK2G (human)): 95%; residual activity (PNCK (human)): 96.2%; residual activity (CDK1 CCNB1 (human)): 110%; residual activity (PRKCH (human)): 92.6%; residual activity (AURKA (human)): 76.5%; residual activity (MELK (human)): 101%; residual activity (MAP3K2 (human)): 83.8%; residual activity (EPHA3 (human)): 96.3%; residual activity (FRK (human)): 6.25%; residual activity (PAK1 (human)): 96%; residual activity (SYK (human)): 104%; residual activity (FGFR2 (human)): 78%

Q: What does the source list for `CC#CC(=O)Nc1cc2c(Nc3ccc(F)c(Cl)c3)ncnc2cn1`?
A: residual activity (CSNK1G2 (human)): 94.9%; residual activity (GSK3B (human)): 93%; residual activity (MYLK2 (human)): 99.9%; residual activity (DYRK1B (human)): 103%; residual activity (MAPK3 (human)): 100%; residual activity (PAK7 (human)): 102%; residual activity (PKN1 (human)): 101%; residual activity (FYN (human)): 95.8%; residual activity (CAMKK2 (human)): 103%; residual activity (NTRK1 (human)): 98.5%; residual activity (PRKG1 (human)): 91.7% and 97.6%; residual activity (DAPK3 (human)): 97.8%; residual activity (CHEK2 (human)): 98.8%; residual activity (RPS6KB1 (human)): 97.1%; residual activity (GRK6 (human)): 104%; residual activity (MARK1 (human)): 98.2%; residual activity (ROS1 (human)): 91.3%; residual activity (FGR (human)): 89.6%; residual activity (EPHA1 (human)): 88.3%; residual activity (LTK (human)): 93%; residual activity (CDK5 CDK5R1 p35 (human)): 97.9%; residual activity (CAMKK1 (human)): 124%; residual activity (MAPKAPK3 (human)): 105%; residual activity (MAPK14 (human)): 101%; residual activity (ULK1 (human)): 96.6%; residual activity (CDK9 CCNK (human)): 98.4%; residual activity (PLK3 (human)): 100%; residual activity (PRKCE (human)): 88.3%; residual activity (CAMK2G (human)): 97.7%; residual activity (PNCK (human)): 99.4%; residual activity (CDK1 CCNB1 (human)): 99.5%; residual activity (PRKCH (human)): 90.4%; residual activity (AURKA (human)): 96.5%; residual activity (MELK (human)): 101%; residual activity (MAP3K2 (human)): 107%; residual activity (EPHA3 (human)): 99.8%; residual activity (FRK (human)): 102%; residual activity (PAK1 (human)): 94.5%; residual activity (SYK (human)): 95.4%; residual activity (FGFR2 (human)): 101%
